Where two headings read alike, the source gives them in different places.
Target: FGFR3 kinase (Homo sapiens (Human), UniProt P22607, K650E)
Assay: FGFR3 kinase inhibition (protein kinase activity assays)
Type: biochemical
Experimental: generic assay set-up: Enzyme activities were measured by mixing 10 μL of a 3-fold concentrated compound solution or control with 10 μL of the corresponding substrate mixture (peptidic substrate, ATP and [γ^33P]ATP). The reactions were initiated by addition of 10 μL of a 3-fold concentrated solution of the respective enzyme in assay buffer. […] Filter binding (FB) method: FB assays were carried out in 96-well plates at room temperature for 10 min in a finial volume of 30 μL including the components as indicated in section above. […] After spotting, vacuum was connected and each well rinsed with 200 μL 0.5% H3PO4. Free membranes were removed and washed 4 times on a shaker with 1% H3PO4 and once with ethanol. Membranes were dried and overlaid with addition of 10 μL/well of a scintillation fluid. The plates were eventually sealed and counted in a microplate scintillation counter. IC50 values were calculated by linear regression analysis of the percentage inhibition of the compound.
generic assay set-up: The assay has been run at room temperature on a liquid handling robot. […] After an incubation time of 45 min in the dark, the plates were transferred into a fluorescence reader for counting.
Compounds of formula (I) are assayed to measure their capacity to inhibit FGFR3 kinase as described above.

[1] = read-out: rating (FGFR3 kinase IC50)
[2] = average of 2 independent measurements, * single value, read-out: FGFR3 IC50

Sequence of FGFR3 kinase (P22607 23-806 K650E): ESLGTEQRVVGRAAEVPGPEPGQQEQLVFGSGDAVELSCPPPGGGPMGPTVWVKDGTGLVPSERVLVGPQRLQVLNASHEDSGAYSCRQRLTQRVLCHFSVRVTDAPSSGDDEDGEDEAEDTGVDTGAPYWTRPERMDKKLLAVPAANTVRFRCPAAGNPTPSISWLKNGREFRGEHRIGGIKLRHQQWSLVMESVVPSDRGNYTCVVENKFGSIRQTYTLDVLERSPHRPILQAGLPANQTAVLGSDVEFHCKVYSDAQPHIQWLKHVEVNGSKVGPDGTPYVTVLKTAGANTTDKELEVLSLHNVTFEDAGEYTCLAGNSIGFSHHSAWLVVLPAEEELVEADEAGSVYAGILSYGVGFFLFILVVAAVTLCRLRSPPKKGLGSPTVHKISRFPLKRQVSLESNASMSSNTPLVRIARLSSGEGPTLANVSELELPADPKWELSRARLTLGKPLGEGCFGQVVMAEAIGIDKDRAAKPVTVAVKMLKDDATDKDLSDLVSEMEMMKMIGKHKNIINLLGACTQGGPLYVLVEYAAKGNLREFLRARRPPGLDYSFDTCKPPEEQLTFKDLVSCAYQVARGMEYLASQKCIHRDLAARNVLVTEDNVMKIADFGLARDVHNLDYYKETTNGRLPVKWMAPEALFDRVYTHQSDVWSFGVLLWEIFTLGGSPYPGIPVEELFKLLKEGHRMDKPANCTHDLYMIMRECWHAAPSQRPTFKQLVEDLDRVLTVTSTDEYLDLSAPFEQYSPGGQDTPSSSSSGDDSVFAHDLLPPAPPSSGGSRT

## COc1cc(OC)c(F)c(-c2ccc(C(=O)Nc3ccc(CN4CCN(C)CC4)nc3)c3nccnc23)c1F [Example 89, 8-(2,6-Difluoro-3,5-dimethoxy-phenyl)-quinoxaline-5-carboxylic acid [6-(4-methyl-piperazin-1-ylmethyl)-pyridin-3-yl]-amide]
[1]
  IC50: < 100 nM

## COc1cc(OC)c(Cl)c(-c2ccc(C(=O)Nc3nnc[nH]3)c3nccnc23)c1Cl [Example 17, 8-(2,6-Dichloro-3,5-dimethoxy-phenyl)-quinoxaline-5-carboxylic acid (4H-[1,2,4]triazol-3-yl)-amide]
[2]
  IC50: > 10000 nM

## COc1cc(OC)c(Cl)c(-c2ccc(C(=O)Nc3nnc[nH]3)c3nccnc23)c1Cl [Example 163, 8-(2,6-Dichloro-3,5-dimethoxy-phenyl)-quinoxaline-5-carboxylic acid (4H-[1,2,4]triazol-3-yl)-amide]
[1]
  IC50: 500 to 50000 nM

## COc1cc(OC)c(Cl)c(-c2ccc(C(=O)Nc3ccc(N4CCN(C(C)C)CC4)nc3)c3nccnc23)c1Cl [Example 33, 8-(2,6-Dichloro-3,5-dimethoxy-phenyl)-quinoxaline-5-carboxylic acid [6-(4-isopropyl-piperazin-1-yl)-pyridin-3-yl]-amide]
[1]
  IC50: < 100 nM

## COc1cc(OC)c(Cl)c(-c2ccc(C(=O)Nc3ccc(CN4CCN(C)CC4)cn3)c3ncccc23)c1Cl [Example 164, 5-(2,6-Dichloro-3,5-dimethoxy-phenyl)-quinoline-8-carboxylic acid [5-(4-methyl-piperazin-1-ylmethyl)-pyridin-2-yl]amide]
[1]
  IC50: < 100 nM

## COc1cc(OC)c(Cl)c(-c2ccc(C(=O)Nc3ncc[nH]3)c3ncccc23)c1Cl [Example 161, 5-(2,6-Dichloro-3,5-dimethoxy-phenyl)-quinoline-8-carboxylic acid (1H-imidazol-2-yl)-amide]
[1]
  IC50: < 100 nM

## COc1cc(OC)c(Cl)c(-c2ccc(C(=O)Nc3ccc(CN(C)CCN(C)C)cn3)c3nccnc23)c1Cl [Example 81, 8-(2,6-Dichloro-3,5-dimethoxy-phenyl)-quinoxaline-5-carboxylic acid (5-{[(2-dimethylamino-ethyl)-methyl-amino]-methyl}-pyridin-2-yl)-amide]
[1]
  IC50: < 100 nM

## COc1cc(OC)c(Cl)c(-c2ccc(C(=O)Nc3ccc(O)cc3)c3nccnc23)c1Cl [Example 7, 8-(2,6-Dichloro-3,5-dimethoxy-phenyl)-quinoxaline-5-carboxylic acid (4-hydroxyphenyl)-amide]
[1]
  IC50: 500 to 50000 nM

## COc1cc(OC)cc(-c2ccc(C(=O)Nc3ccc(CN4CCNCC4)cn3)c3nccnc23)c1 [Example 117]
[1]
  IC50: 500 to 50000 nM

## COc1cc(OC)c(F)c(-c2ccc(C(=O)Nc3ccc(CN4CCS(=O)(=O)CC4)cn3)c3nccnc23)c1F [Example 140, 8-(2,6-Difluoro-3,5-dimethoxy-phenyl)-quinoxaline-5-carboxylic acid [5-(1,1-dioxo-thiomorpholin-4-ylmethyl)-pyridin-2-yl]-amide]
[1]
  IC50: < 100 nM

## COc1cc(OC)c(Cl)c(-c2ccc(C(=O)Nc3nccn3Cc3ccccc3)c3ncccc23)c1Cl [Example 160, 5-(2,6-Dichloro-3,5-dimethoxy-phenyl)-quinoline-8-carboxylic acid (1-benzyl-1H-imidazol-2-yl)-amide]
[1]
  IC50: 500 to 50000 nM

## COc1ccc(Cl)c(-c2ccc(C(=O)Nc3ccc(OCCN(C)C)cc3)c3nccnc23)c1 [Example 65, 8-(2-Chloro-5-methoxy-phenyl)-quinoxaline-5-carboxylic acid [4-(2-dimethylamino-ethoxy)-phenyl]-amide]
[1]
  IC50: 500 to 50000 nM

## COc1cc(OC)c(Cl)c(-c2ccc(C(=O)Nc3ccc(CN4CCNCC4)nc3)c3ncccc23)c1Cl [Example 171, 5-(2,6-Dichloro-3,5-dimethoxy-phenyl)-quinoline-8-carboxylic acid (6-piperazin-1-ylmethyl-pyridin-3-yl)-amide]
[1]
  IC50: 500 to 50000 nM

## CCN1CCN(c2ccc(NC(=O)c3ccc(-c4c(Cl)c(OC)cc(OC)c4Cl)c4nccnc34)cc2)CC1 [Example 1, 8-(2,6-Dichloro-3,5-dimethoxy-phenyl)-quinoxaline-5-carboxylic acid [4-(4-ethyl-piperazin-1-yl)-phenyl]-amide]
[1]
  IC50: < 100 nM

## COc1cc(OC)c(Cl)c(-c2ccc(C(=O)Nc3ccc(C(N)=O)cc3)c3nccnc23)c1Cl [Example 3, 8-(2,6-Dichloro-3,5-dimethoxy-phenyl)-quinoxaline-5-carboxylic acid (4-carbamoyl-phenyl)-amide]
[2]
  IC50: > 10000 nM

## CCN1CCN(c2ccc(NC(=O)c3ccc(-c4c(C)cccc4C)c4nccnc34)cc2)CC1 [Example 72, 8-(2,6-Dimethyl-phenyl)-quinoxaline-5-carboxylic acid [4-(4-ethyl-piperazin-1-yl)-phenyl]-amide]
[1]
  IC50: 500 to 50000 nM

## COc1cc(OC)c(Cl)c(-c2ccc(C(=O)Nc3ccc(OCCN(C)C)cc3)c3nccnc23)c1Cl [Example 5, 8-(2,6-Dichloro-3,5-dimethoxy-phenyl)-quinoxaline-5-carboxylic acid [4-(2-dimethylamino-ethoxy)-phenyl]-amide]
[1]
  IC50: < 100 nM

## COc1cc(OC)c(F)c(-c2ccc(C(=O)Nc3cccnc3)c3nccnc23)c1F [Example 90, 8-(2,6-Difluoro-3,5-dimethoxy-phenyl)-quinoxaline-5-carboxylic acid pyridin-3-ylamide]
[1]
  IC50: 100 to 500 nM

## Cc1cccc(C)c1-c1ccc(C(=O)Nc2nc(CN3CCN(C)CC3)c[nH]2)c2nccnc12 [Example 77, 8-(2,6-Dimethyl-phenyl)-quinoxaline-5-carboxylic acid [4-(4-methyl-piperazin-1-ylmethyl)-1H-imidazol-2-yl]-amide]
[2]
  IC50: > 10000 nM

## CCN1CCN(Cc2ccc(NC(=O)c3ccc(-c4cc(C)c[n+]([O-])c4C)c4nccnc34)nc2)CC1 [Example 99, 8-(2,5-Dimethyl-1-oxy-pyridin-3-yl)-quinoxaline-5-carboxylic acid [5-(4-ethyl-piperazin-1-ylmethyl)-pyridin-2-yl]-amide]
[2]
  IC50: > 10000 nM

## COc1cc(OC)c(Cl)c(-c2ccc(C(=O)Nc3ccc(N(C)C4CCN(C)CC4)nc3)c3nccnc23)c1Cl [Example 37, 8-(2,6-Dichloro-3,5-dimethoxy-phenyl)-quinoxaline-5-carboxylic acid {6-[methyl-(1-methyl-piperidin-4-yl)-amino]-pyridin-3-yl}-amide]
[1]
  IC50: < 100 nM

## CCN1CCN(Cc2ccc(NC(=O)c3ccc(-c4c(Cl)c(OC)cc(OC)c4Cl)c4cccnc34)nc2)CC1 [Example 165, 5-(2,6-Dichloro-3,5-dimethoxy-phenyl)-quinoline-8-carboxylic acid [5-(4-ethyl-piperazin-1-ylmethyl)-pyridin-2-yl]-amide]
[1]
  IC50: 100 to 500 nM

## Cc1cscc1-c1ccc(C(=O)Nc2nc(CN3CCN(C)CC3)c[nH]2)c2nccnc12 [Example 69, 8-(4-Methyl-thiophen-3-yl)-quinoxaline-5-carboxylic acid [4-(4-methyl-piperazin-1-ylmethyl)-1H-imidazol-2-yl]amide]
[2]
  IC50: > 10000 nM

## COc1cc(OC)c(Cl)c(-c2ccc(C(=O)Nc3cccnc3)c3ncc(N(C)CCN(C)C)nc23)c1Cl [Example 87, 8-(2,6-Dichloro-3,5-dimethoxy-phenyl)-2-[(2-dimethylamino-ethyl)-methylamino]-quinoxaline-5-carboxylic acid pyridin-3-ylamide]
[1]
  IC50: 500 to 50000 nM

## COc1cc(OC)c(Cl)c(-c2ccc(C(=O)Nc3ccn(CCN(C)C)c3)c3nccnc23)c1Cl [Example 121, 8-(2,6-Dichloro-3,5-dimethoxy-phenyl)-quinoxaline-5-carboxylic acid [1-(2-dimethylamino-ethyl)-1H-pyrrol-3-yl]-amide]
[1]
  IC50: 500 to 50000 nM

## COc1cc(OC)c(Cl)c(-c2ccc(C(=O)Nc3cnc[nH]3)c3ncccc23)c1Cl [Example 162, 5-(2,6-Dichloro-3,5-dimethoxy-phenyl)-quinoline-8-carboxylic acid (3H-imidazol-4-yl)-amide]
[1]
  IC50: 100 to 500 nM

## COc1cc(OC)c(F)c(-c2ccc(C(=O)Nc3nc(CN4CCN(C)CC4)c[nH]3)c3nccnc23)c1F [Example 141, 8-(2,6-Difluoro-3,5-dimethoxy-phenyl)-quinoxaline-5-carboxylic acid [4-(4-methyl-piperazin-1-ylmethyl)-1H-imidazol-2-yl]-amide]
[1]
  IC50: < 100 nM

## CCN1CCN(Cc2ccc(NC(=O)c3ccc(-c4c(Cl)c(OC)cc(OC)c4Cl)c4cccnc34)cn2)CC1 [Example 169, 5-(2,6-Dichloro-3,5-dimethoxy-phenyl)-quinoline-8-carboxylic acid [6-(4-ethyl-piperazin-1-ylmethyl)-pyridin-3-yl]-amide]
[1]
  IC50: 100 to 500 nM

## CCN1CCN(Cc2ccc(NC(=O)c3ccc(-c4c(F)c(OC)cc(OC)c4F)c4nccnc34)cn2)CC1 [Example 88, 8-(2,6-Difluoro-3,5-dimethoxy-phenyl)-quinoxaline-5-carboxylic acid [6-(4-ethyl-piperazin-1-ylmethyl)-pyridin-3-yl]-amide]
[1]
  IC50: < 100 nM

## CCN1CCN(c2ccc(NC(=O)c3ccc(-c4c(Cl)c(OC)cc(OC)c4Cl)c4cccnc34)cc2)CC1 [Example 159, 5-(2,6-Dichloro-3,5-dimethoxy-phenyl)-quinoline-8-carboxylic acid [4-(4-ethyl-piperazin-1-yl)-phenyl]-amide]
[1]
  IC50: < 100 nM

## COc1cc(OC)c(Cl)c(-c2ccc(C(=O)Nc3ccc(CN4CCS(=O)(=O)CC4)cn3)c3nccnc23)c1Cl [Example 104, 8-(2,6-Dichloro-3,5-dimethoxy-phenyl)-quinoxaline-5-carboxylic acid [5-(1,1-dioxothiomorpholin-4-ylmethyl)-pyridin-2-yl]-amide]
[1]
  IC50: 100 to 500 nM
